From EP4610267A1, “CYCLIC DINUCLEOTIDES AND CONJUGATES THEREOF WITH ANTIBODIES” (priority 2024, dated 2025)

Legend:
STING Q = assay: 293T STING digitonin reporter assay (Q haplotype); assay type: cell-based, human; details: digitonin permeabilised 293T reporter cells
Method: Digitonin Assay with 293T Reporter Cells. The generation of 293T reporter cells stably expressing different STING protein haplotypes (WT, HAQ, REF, AQ, or Q) was described previously (Novotna et al, J. Med. Chem. 2019,62, 10676). The cells were seeded at a density of 250 000 cells per cm^2 into 96 well white poly(D-lysine) coated plates in 100 µL of DMEM with high glucose supplemented with 10% heat inactivated FBS. Next day, the medium was removed, and compounds were added in 3-fold serial dilutions in a digitonin buffer containing 50 mM HEPES (pH 7.0), 100 mM KCl, 3 mM MgClz, 0.1 mM DTT, 85 mM sucrose, 0.2% (w/w) BSA, 1 mM ATP, 0.1 mM GTP, and 10 µg/mL digitonin A. After 30 min incubation at 37 °C with 5% CO2, the digitonin buffer was removed, cells were washed once with 100 µL of the cultivation medium, and 100 µL of fresh medium was added to each well. The plates with cells were further incubated for 5 h at 37 °C with 5% CO2. Thereafter, 50 µL of the medium was removed, and 30 µL of Bright-Glo Luciferase Assay System reagent was added to each well. […] Nonlinear regression curve fit with standard slope was used for EC50 value calculations. The EC50 value represents CDN concentration that gives half-maximal response of firefly luciferase in the 293T reporter assay.

[1] = test system: CT26 mouse colon carcinoma; assay: CT26 mouse tumor model, intratumoral injection, tumor growth; assay type: in vivo, BALB/c mice; details: 5mg/kg intratumorally on day 1, 4 and 8
Method: The CT26 mouse colon carcinoma cell line was obtained from American Type Culture Collection (ATCC®, CRL-2638). The cells were cultured in RPMI-1640 medium containing 10% fetal bovine serum, 2 mM glutamine, 100 units/mL penicillin G sodium, and 100 µg/mL streptomycin sulfate at 37 °C in a humidified incubator with 5% CO2. On the day of tumor implantation in ten-week-old female BALB/c mice (Charles River Laboratories), CT26 cells harvested during the exponential growth phase were resuspended in phosphate-buffered saline (PBS) at a concentration of 1 × 10^7 cells/mL. Tumors were initiated by subcutaneous implantation of 1 × 10^6 CT26 cells (in a 0.1 mL suspension) into the right flank of each test animal. Tumor dimensions were measured in two directions, and tumor volumes were calculated using the formula (L × W^2)/2. Animals were pair matched when tumor reached volume 100 - 150 mm^3 (designated as day 1) and injected intratumorally (i.t.) on day 1, 4 and 8 with 5mg/kg or 1.5mg/kg Compound 2.2 or PBS in total volume 20 µL.

AH1+ CD8+ T cells = assay: Induction of tumor specific AH1+ CD8 T cells in CT26 model (flow cytometry); assay type: in vivo, BALB/c mice; details: blood collected on day 14, i.t. treatment
Description: The induction of tumor specific AH1+ CD8 T cells was monitored in response to Compound 2.2 treatment. Blood immune cells were collected on day 14 and red blood cells were lysed using red blood cell lysis buffer. Immune cells were immunophenotyped using viability dye (Zombie NIR Fixable Viability Kit, BioLegend) and monoclonal antibodies: BUV395 rat anti-mouse CD19, BUV395 hamster anti-mouse CD49b, APC hamster anti-mouse CD3, BV605 rat anti-mouse CD4, BV510 rat anti-mouse CD8, (all BD Biosciences). Specific staining using MHC-I dextramer: PE labelled AH1 peptide ([…], Immudex) was performed according to the manufacturer's recommendation. Specific and control samples of unstained cells, positive control for dead cells (cells in PBS incubated for 10 min at 65 °C and further stained with a live/dead marker), fluorescence minus one (FMO) and isotype controls (ISO) were prepared. Samples were measured immediately without a fixation step in a single tube format using BD LSRFortessa flow cytometer (BD Biosciences) in 250 µl of FC buffer (PBS containing 5% FBS). Data was acquired using FACS Diva software (version 8.0.1, BD Biosciences). Debris was excluded by forward and side scatter gating followed by doublet and dead cell exclusion. […] The data were analyzed using FlowJo software (version 10, BD Biosciences) and expressed as a frequency (%) of parent population, i.e. CD3+ T cells.

Nc1ncnc2c1ncn2[C@@H]1O[C@@H]2OCP(=O)(S)O[C@@H]3[C@H](F)[C@@H](COP(=O)(S)OC[C@H]2[C@H]1F)O[C@H]3n1cnc2c(=O)[nH]cnc21 (single isomer, unassigned) [Compound 2.2]
EC50 (STING Q): 80 nM | animals tumor free on day 65 (out twelve tumor bearing animals) [1]: Twelve | frequency of tumor specific CD8 T cell recognizing AH1 peptide compared to the vehicle arm (AH1+ CD8+ T cells): statistically significantly increased frequency
